Tested on: ob/ob mouse
Assay: Antidiabetic and hypolipaemic effect in the ob/ob mouse
Type: in vivo
From the text: Mutations in laboratory animals and also different sensitivities to dietary regimens have allowed the development of animal models having non-insulin-dependent diabetes and hyperlipidaemia associated with obesity and with resistance to insulin. Genetic mice models (ob/ob) (Diabetes, 1982, 31 (1), 1-6) and Zucker (fa/fa) rats have been developed by various laboratories in order to understand the physiopathology of those diseases and test the effectiveness of new antidiabetic compounds (Diabetes, 1983, 32, 830-838).
The 10-week-old male ob/ob mouse (Harlan) is used for the in vivo tests. The animals are kept in a light-darkness cycle of 12 hours at 25° C. This mouse has a basal hyperglycaemia of 2 g/l. The animals are randomly selected with regard to their glycaemia to form groups of eight. […] The control group receives the solvents under the same conditions as the treated groups. The activity of the products is evaluated by measuring glycaemia, insulinaemia and triglyceridaemia 24 hours after the final administration and by measuring body weight daily.

[1] = 3 mg/kg oral, once per day for four days, 24 hours after final administration

Structure (SMILES) | reduction of glycaemia vs control mice [1] [%] | reduction of insulinaemia vs control mice [1] [%] | reduction of triglyceridaemia vs control mice [1] [%] | reduction in glycaemia (1 mg/kg) [%] | reduction in insulinaemia (1 mg/kg) [%] | reduction in the weight gain observed in the ob/ob control mice (1 mg/kg) [%] | reduction in triglyceridaemia (1 mg/kg) [%]
O=C(c1ccc2c(c1)sc(=O)n2CCOc1ccc(CC(OCC(F)(F)F)C(=O)O)cc1)C1CC1 (stereo not shown) [Example 2, 3-{4-[2-(6-(Cyclopropylcarbonyl)-2-oxo-1,3-benzothiazol-3(2H)-yl)-ethoxy]phenyl}-2-(2,2,2-trifluoroethoxy)propanoic acid] | 42 | 71 | 45 | – | – | – | –
O=C(c1ccc2c(c1)sc(=O)n2CCOc1ccc(C[C@H](OCC(F)(F)F)C(=O)[O-])cc1)C1CC1.[Na+] [Example 9, Sodium (S)-3-{4-[2-(6-(cyclopropylcarbonyl)-2-oxo-1,3-benzothiazol-3(2H)-yl)ethoxy]phenyl}-2-(2,2,2-trifluoroethoxy)propanoate] | – | – | – | 39 | 41 | 14 | 52
